According to PubChem BioAssay AID248 (DTP/NCI, 2004):
“And” between values parts separate entries of the source, which are not always exact repeats. Equal values may be shown once. Toxic doses and inconclusive results are not listed.

Test system: L1210 leukemia ip in BDF1 mice, survival T/C
Experiment: NCI In Vivo Anticancer Drug Screen. Data for tumor model L1210 Leukemia (intraperitoneal) in B6D2F1 (BDF1) mice
Conditions: endpoint: mean survival time, higher = longer survival
Outline: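 Antitumor effect is assessed in tumor-bearing animals. Survival in the compound arm is compared with a vehicle-dosed control arm and expressed as their quotient.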

[1] = dose: 100.0 mg/kg/injection, schedule: Q01DX001 (ip), vehicle: saline
[2] = dose: 200.0 mg/kg/injection, schedule: Q01DX001 (ip), vehicle: saline
[3] = dose: 400.0 mg/kg/injection, schedule: Q01DX001 (ip), vehicle: saline
[4] = dose: 100.0 mg/kg/injection, schedule: Q04DX003 (ip), vehicle: Klucel (hydroxypropylcellulose) (HPC)
[5] = dose: 200.0 mg/kg/injection, schedule: Q04DX003 (ip), vehicle: Klucel (hydroxypropylcellulose) (HPC)
[6] = dose: 400.0 mg/kg/injection, schedule: Q04DX003 (ip), vehicle: Klucel (hydroxypropylcellulose) (HPC)
[7] = dose: 100.0 mg/kg/injection, schedule: Q04DX002 (ip), vehicle: Klucel (hydroxypropylcellulose) (HPC)
[8] = dose: 200.0 mg/kg/injection, schedule: Q04DX002 (ip), vehicle: Klucel (hydroxypropylcellulose) (HPC)
[9] = dose: 400.0 mg/kg/injection, schedule: Q04DX002 (ip), vehicle: Klucel (hydroxypropylcellulose) (HPC)
[10] = dose: 100.0 mg/kg/injection, schedule: Q01DX009 (ip), vehicle: saline with Tween-80
[11] = dose: 200.0 mg/kg/injection, schedule: Q01DX009 (ip), vehicle: saline with Tween-80

Structure (SMILES): O=[N+]([O-])c1ccc(S(=O)(=O)Cl)c(Cl)c1
- T/C [1]: 100 % of control
- T/C [2]: 96 % of control
- T/C [3]: 92 % of control

Structure (SMILES): CCCCCCCCN1CCCNCC1
- T/C (dose: 6.25 mg/kg/injection, schedule: Q01DX009 (ip), vehicle: saline): 96 % of control
- T/C (dose: 12.5 mg/kg/injection, schedule: Q01DX009 (ip), vehicle: saline): 102 % of control
- T/C (dose: 25.0 mg/kg/injection, schedule: Q01DX009 (ip), vehicle: saline): 96 % of control
- T/C (dose: 25.0 mg/kg/injection, schedule: Q04DX003 (ip), vehicle: saline): 121 % of control
- T/C (dose: 50.0 mg/kg/injection, schedule: Q04DX003 (ip), vehicle: saline): 109 % of control
- T/C (dose: 100.0 mg/kg/injection, schedule: Q04DX003 (ip), vehicle: saline): 87 % of control

Structure (SMILES): C[S+](C)CC(=O)c1ccc(Br)cc1
- T/C [4]: 97 % of control
- T/C [5]: 95 % of control
- T/C [6]: 101 % of control

Structure (SMILES): CC(Cc1ccccc1)N(C)C(=O)CN1C(=O)c2ccccc2C1=O (stereo not drawn)
- T/C (dose: 50.0 mg/kg/injection, schedule: Q01DX001 (ip), vehicle: saline): 103 % of control
- T/C [1]: 117 % of control
- T/C [2]: 109 % of control
- T/C [3]: 91 % of control

Structure (SMILES): O=NN(CCCl)C(=O)Nc1cc(NC(=O)N(CCCl)N=O)cc(C(=O)O)c1
- T/C (dose: 0.22 mg/kg/injection, schedule: Q01DX009 (ip), vehicle: saline): 110 % of control
- T/C (dose: 0.34 mg/kg/injection, schedule: Q01DX009 (ip), vehicle: saline): 117 % of control
- T/C (dose: 0.52 mg/kg/injection, schedule: Q01DX009 (ip), vehicle: saline): 290 % of control
- T/C (dose: 0.62 mg/kg/injection, schedule: Q01DX001 (ip), vehicle: carboxymethylcellulose (CMC)): 112 % of control
- T/C (dose: 0.83 mg/kg/injection, schedule: Q04DX003 (ip), vehicle: saline): 114 % of control
- T/C (dose: 1.25 mg/kg/injection, schedule: Q01DX001 (ip), vehicle: carboxymethylcellulose (CMC)): 123 % of control
- T/C (dose: 1.25 mg/kg/injection, schedule: Q04DX003 (ip), vehicle: saline): 122 % of control
- T/C (dose: 1.7 mg/kg/injection, schedule: Q01DX001 (ip), vehicle: saline): 155 % of control
- T/C (dose: 2.6 mg/kg/injection, schedule: Q01DX001 (ip), vehicle: saline with Tween-80): 151 % of control
- T/C (dose: 5.0 mg/kg/injection, schedule: Q01DX009 (ip), vehicle: Klucel (hydroxypropylcellulose) (HPC)): 93 % of control
- T/C (dose: 5.0 mg/kg/injection, schedule: Q01DX009 (ip), vehicle: saline): 162 % of control
- T/C (dose: 6.6 mg/kg/injection, schedule: Q04DX003 (ip), vehicle: saline): 153 % of control
- T/C (dose: 9.0 mg/kg/injection, schedule: Q01DX001 (ip), vehicle: saline): 152 % of control
- T/C (dose: 10.0 mg/kg/injection, schedule: Q01DX009 (ip), vehicle: Klucel (hydroxypropylcellulose) (HPC)): 150 % of control and 160 % of control
- T/C (dose: 10.0 mg/kg/injection, schedule: Q01DX009 (ip), vehicle: saline): 212 % of control
- T/C (dose: 12.0 mg/kg/injection, schedule: Q01DX001 (ip), vehicle: saline): 150 % of control
- T/C (dose: 13.0 mg/kg/injection, schedule: Q04DX003 (ip), vehicle: saline): 155 % of control
- T/C (dose: 15.0 mg/kg/injection, schedule: Q01DX009 (ip), vehicle: Klucel (hydroxypropylcellulose) (HPC)): 150 % of control
- T/C (dose: 17.0 mg/kg/injection, schedule: Q01DX001 (ip), vehicle: saline with Tween-80): 196 % of control
- T/C (dose: 20.0 mg/kg/injection, schedule: Q01DX009 (ip), vehicle: Klucel (hydroxypropylcellulose) (HPC)): 195 % of control
- T/C (dose: 20.0 mg/kg/injection, schedule: Q01DX009 (ip), vehicle: saline): 102 % of control
- T/C (dose: 20.0 mg/kg/injection, schedule: Q04DX003 (ip), vehicle: saline): 161 % of control
- T/C (dose: 26.0 mg/kg/injection, schedule: Q01DX001 (ip), vehicle: saline with Tween-80): 155 % of control
- T/C (dose: 26.0 mg/kg/injection, schedule: Q01DX001 (ip), vehicle: saline): 152 % of control

Structure (SMILES): CCOC(=O)c1ccc(NC(=O)Oc2ccccc2OCC)cc1
- T/C (dose: 100.0 mg/kg/injection, schedule: Q01DX009 (ip), vehicle: Klucel (hydroxypropylcellulose) (HPC)): 97 % of control
- T/C (dose: 200.0 mg/kg/injection, schedule: Q01DX009 (ip), vehicle: Klucel (hydroxypropylcellulose) (HPC)): 95 % of control
- T/C (dose: 400.0 mg/kg/injection, schedule: Q01DX009 (ip), vehicle: Klucel (hydroxypropylcellulose) (HPC)): 90 % of control

Structure (SMILES): CC[C@@]1(O)c2cc3n(c(=O)c2CO[C@H]1O)Cc1cc2ccccc2nc1-3
- T/C (dose: 0.5 mg/kg/injection, schedule: Q01DX Z (ip), vehicle: saline): 96 % of control
- T/C (dose: 1.0 mg/kg/injection, schedule: Q01DX Z (ip), vehicle: saline): 94 % of control
- T/C (dose: 2.0 mg/kg/injection, schedule: Q01DX Z (ip), vehicle: saline): 97 % of control
- T/C (dose: 4.0 mg/kg/injection, schedule: Q01DX015 (ip), vehicle: saline): 104 % of control
- T/C (dose: 4.0 mg/kg/injection, schedule: Q01DX Z (ip), vehicle: saline): 97 % of control
- T/C (dose: 8.0 mg/kg/injection, schedule: Q01DX007 (ip), vehicle: other): 108 % of control
- T/C (dose: 8.0 mg/kg/injection, schedule: Q01DX012 (ip), vehicle: saline): 95 % of control
- T/C (dose: 8.0 mg/kg/injection, schedule: Q01DX015 (ip), vehicle: saline): 106 % of control
- T/C (dose: 16.0 mg/kg/injection, schedule: Q01DX007 (ip), vehicle: other): 112 % of control
- T/C (dose: 16.0 mg/kg/injection, schedule: Q01DX012 (ip), vehicle: saline): 108 % of control
- T/C (dose: 16.0 mg/kg/injection, schedule: Q01DX015 (ip), vehicle: saline): 150 % of control

Structure (SMILES): CCCCCCCCCC[Si](C)(C)C
- T/C [1]: 100 % of control
- T/C [2]: 97 % of control
- T/C [3]: 100 % of control

Structure (SMILES): c1ccc2occc2c1
- T/C [1]: 103 % of control

Structure (SMILES): CCCCCCCCCCCCCCCC(S(=O)(=O)CC)S(=O)(=O)CC
- T/C [4]: 93 % of control
- T/C [5]: 97 % of control
- T/C [6]: 87 % of control

Structure (SMILES): CCCCN1C(=O)CSC1=S
- T/C [7]: 97 % of control
- T/C [8]: 113 % of control
- T/C [9]: 100 % of control

Structure (SMILES): CN1CC2([N+](=O)[O-])C=CCC([N+](=O)[O-])(C1)C2 (stereo not drawn)
- T/C (dose: 25.0 mg/kg/injection, schedule: Q01DX009 (ip), vehicle: water): 98 % of control
- T/C (dose: 50.0 mg/kg/injection, schedule: Q01DX009 (ip), vehicle: water): 102 % of control
- T/C (dose: 100.0 mg/kg/injection, schedule: Q01DX009 (ip), vehicle: water): 104 % of control
- T/C (dose: 200.0 mg/kg/injection, schedule: Q01DX009 (ip), vehicle: water): 103 % of control

Structure (SMILES): CCn1c(C)cc(O)cc1=O
- T/C [10]: 94 % of control
- T/C [11]: 92 % of control
- T/C (dose: 400.0 mg/kg/injection, schedule: Q01DX009 (ip), vehicle: saline with Tween-80): 94 % of control

Structure (SMILES): CCOC(=O)c1ccc(NC(=O)Nc2ccc(NC(C)=O)cc2)cc1
- T/C (dose: 25.0 mg/kg/injection, schedule: Q01DX009 (ip), vehicle: saline with Tween-80): 89 % of control
- T/C (dose: 25.0 mg/kg/injection, schedule: Q04DX002 (ip), vehicle: saline with Tween-80): 86 % of control
- T/C (dose: 25.0 mg/kg/injection, schedule: Q04DX003 (ip), vehicle: saline with Tween-80): 88 % of control
- T/C (dose: 50.0 mg/kg/injection, schedule: Q01DX001 (ip), vehicle: saline with Tween-80): 88 % of control
- T/C (dose: 50.0 mg/kg/injection, schedule: Q01DX009 (ip), vehicle: saline with Tween-80): 89 % of control
- T/C (dose: 50.0 mg/kg/injection, schedule: Q04DX002 (ip), vehicle: saline with Tween-80): 86 % of control and 88 % of control
- T/C (dose: 50.0 mg/kg/injection, schedule: Q04DX003 (ip), vehicle: saline with Tween-80): 86 % of control
- T/C (dose: 100.0 mg/kg/injection, schedule: Q01DX001 (ip), vehicle: saline with Tween-80): 88 % of control
- T/C [10]: 91 % of control
- T/C (dose: 200.0 mg/kg/injection, schedule: Q01DX001 (ip), vehicle: saline with Tween-80): 93 % of control
- T/C [11]: 91 % of control
- T/C (dose: 200.0 mg/kg/injection, schedule: Q04DX002 (ip), vehicle: saline with Tween-80): 99 % of control
- T/C (dose: 200.0 mg/kg/injection, schedule: Q04DX003 (ip), vehicle: saline with Tween-80): 90 % of control
- T/C (dose: 400.0 mg/kg/injection, schedule: Q04DX002 (ip), vehicle: saline with Tween-80): 106 % of control

Structure (SMILES): O=C(Oc1ccccc1)c1ccc2ccccc2c1O
- T/C [7]: 100 % of control
- T/C [8]: 91 % of control
- T/C [9]: 100 % of control
